{"source": "patent US9549556B2", "about": "“Macrocyclic picolinamides as fungicides” (DOW AGROSCIENCES LLC, priority 2013, dated 2017)", "key": {"[1]": {"test_system": "Colletotrichum lagenarium", "experiment": "Cucumber anthracnose (COLLLA) disease control", "assay_type": "in vivo, Glomerella lagenarium (anamorph Colletotrichum lagenarium)", "conditions": "1 DP, 100 ppm"}, "Uncinula necator": {"test_system": "Uncinula necator", "experiment": "Grape powdery mildew (UNCINE) disease control", "assay_type": "in vivo", "conditions": "1 DP, 100 ppm"}, "Leptosphaeria nodorum": {"test_system": "Leptosphaeria nodorum", "experiment": "Wheat glume blotch (LEPTNO) disease control", "assay_type": "in vivo", "conditions": "1 DP, 100 ppm"}, "Cercospora beticola": {"test_system": "Cercospora beticola", "experiment": "Leaf spot of sugar beets (CERCBE) disease control", "assay_type": "in vivo", "conditions": "1 DP, 100 ppm, sugar beet"}, "Septoria tritici": {"test_system": "Septoria tritici", "experiment": "Leaf blotch of wheat (SEPTTR) disease control on wheat seedlings", "assay_type": "in vivo, Mycosphaerella graminicola (anamorph Septoria tritici)", "conditions": "Zymoseptoria tritici, 121.5 g/H, low volume (track spray) application, read-out: SEPTTR disease control rating (% Control)", "procedure": "Evaluation of Fungicidal Activity: Leaf Blotch of Wheat (Mycosphaerella graminicola; Anamorph: Septoria tritici; Bayer Code […]) Technical grades of materials were dissolved in acetone, which were then mixed with nine volumes of water containing 110 ppm Triton X-100. The fungicide solutions were applied onto wheat seedlings using an automated booth sprayer to run-off. All sprayed plants were allowed to air dry prior to further handling. All fungicides were evaluated using the aforementioned method for their activity vs. all target diseases. Wheat leaf blotch and brown rust activity were also evaluated using track spray applications, in which case the fungicides were formulated as EC formulations, containing 0.1% Trycol 5941 in the spray solutions. Wheat plants (variety Yuma) were grown from seed in a greenhouse in 50% mineral soil/50% soil-less Metro mix until the first leaf was fully emerged, with 7-10 seedlings per pot. These plants were inoculated with an aqueous spore suspension of Septoria tritici either prior to or after fungicide treatments. After inoculation the plants were kept in 100% relative humidity (one day in a dark dew chamber followed by two to three days in a lighted dew chamber at 20° C.) to permit spores to germinate and infect the leaf. The plants were then transferred to a greenhouse set at 20° C. for disease to develop. When disease symptoms were fully expressed on the 1st leaves of untreated plants, infection levels were assessed on a scale of 0 to 100 percent disease severity. Percent disease control was calculated using the ratio of disease severity on treated plants relative to untreated plants."}, "Pyricularia oryzae": {"test_system": "Pyricularia oryzae", "assay_type": "in vivo, Magnaporthe grisea (anamorph Pyricularia oryzae)", "conditions": "1 DP, 100 ppm, rice"}, "Rhyncosporium secalis": {"test_system": "Rhyncosporium secalis", "experiment": "Barley scald (RHYNSE) disease control", "assay_type": "in vivo", "conditions": "1 DP, 100 ppm"}, "Puccinia triticina": {"test_system": "Puccinia triticina", "experiment": "Wheat brown rust (PUCCRT) disease control on wheat seedlings", "assay_type": "in vivo", "conditions": "121.5 g/H, low volume (track spray) application, read-out: PUCCRT disease control rating (% Control)"}, "[2]": {"test_system": "Blumeria graminis f. sp. hordei", "experiment": "Barley powdery mildew (ERYSGH) disease control", "assay_type": "in vivo", "conditions": "1 DP, 100 ppm"}, "Erysiphe cichoracearum": {"test_system": "Erysiphe cichoracearum", "experiment": "Powdery mildew of cucumber (ERYSCI) disease control", "assay_type": "in vivo", "conditions": "1 DP, 100 ppm"}, "Alternaria solani": {"test_system": "Alternaria solani", "experiment": "Tomato early blight (ALTESO) disease control", "assay_type": "in vivo", "conditions": "1 DP, 100 ppm"}}, "note": "Like-named read-outs stand apart in the source and are kept apart here."}
{"smiles": "CCCC[C@H]1[C@H](C)OC(=O)[C@@H](NC(=O)c2nccc(OC)c2OCOC(C)=O)COC[C@@H]1OCC1CC1", "note": "[Compound 6]", "values": [{"measurement": "COLLLA disease control rating (% Control)", "setting": "[1]", "result": "A (>70)"}, {"measurement": "UNCINE disease control rating (% Control)", "setting": "Uncinula necator", "result": "A (>70)"}, {"measurement": "LEPTNO disease control rating (% Control)", "setting": "Leptosphaeria nodorum", "result": "A (>70)"}, {"measurement": "CERCBE disease control rating (% Control)", "setting": "Cercospora beticola", "result": "A (>70)"}, {"measurement": "pest or weed control at 121.5 g/ha", "setting": "Septoria tritici; 24 h, 1DP (1 Day Protectant)", "result": "> 70", "unit": "%"}, {"measurement": "pest or weed control at 121.5 g/ha", "setting": "Septoria tritici; 72 h, 3DC (3 Day Curative)", "result": "> 70", "unit": "%"}, {"measurement": "PYRIOR disease control rating (% Control)", "setting": "Pyricularia oryzae", "result": "A (>70)"}, {"measurement": "RHYNSE disease control rating (% Control)", "setting": "Rhyncosporium secalis", "result": "A (>70)"}, {"measurement": "pest or weed control at 121.5 g/ha", "setting": "Puccinia triticina; 24 h, 1DP (1 Day Protectant)", "result": "> 70", "unit": "%"}, {"measurement": "pest or weed control at 121.5 g/ha", "setting": "Puccinia triticina; 72 h, 3DC (3 Day Curative)", "result": "> 70", "unit": "%"}, {"measurement": "ERYSGH disease control rating (% Control)", "setting": "[2]", "result": "A (>70)"}, {"measurement": "ERYSCI disease control rating (% Control)", "setting": "Erysiphe cichoracearum", "result": "A (>70)"}, {"measurement": "ALTESO disease control rating (% Control)", "setting": "Alternaria solani", "result": "B (≦70)"}]}
